Source: patent US5480892A, “(N-phthalimidoalkyl)piperidines” (The Du Pont Merck Pharmaceutical Company, priority 1994, dated 1996)
pKi: −log10 of the molar value. Where two headings read alike, the source gives them in different places.

How the values were obtained:
[1] = target: T1, Sigma receptor (Cavia porcellus, UniProt Q60492); test: Sigma Receptor Binding Assay; format: guinea pig (male Hartley), brain membranes
T1 construct: Brain membranes were prepared by the method of Tam; from tissue; host or cells: guinea pig whole brain membranes
Method: Male Hartley guinea pigs (250-300 g, Charles River) were sacrificed by decapitation. […] Whole brains were homogenized (20 sec.) in 10 vol (wt/vol) of ice-cold 0.34 M sucrose with a Brinkmann Polytron (setting 8). The homogenate was centrifuged at 920×g for 10 min. The supernatant was centrifuged at 47,000×g for 20 min. The resulting membrane pellet was resuspended in 10 vol (original wt/vol) of 50 mM Tris HCl (pH 7.4) and incubated at 37° C. for 45 min to degrade and dissociate bound endogenous ligands. The membranes were then centrifuged at 47,000×g for 20 min and resuspended in 50 mM Tris HCl (50 mL per brain).
After 45 rain of incubation at room temperature, samples were filtered rapidly through Whatman GF/C glass filters under negative pressure, and washed 3 times with ice-cold Tris buffer (5 mL).
IC50 s were calculated from log-logit plots. Apparent Ki s were calculated from the equation, Ki =IC50 /[1+(L/Kd)], where L is the concentration of radioligand and Kd is its dissociation constant.

[2] = target: T2, Dopamine (D-2) receptor (Cavia porcellus, UniProt H0VE83); test: Dopamine Receptor Binding; format: guinea pig, striatum membranes
T2 construct: Membranes were prepared from guinea pig striatum; from tissue; host or cells: guinea pig striatum membranes
Method: Membranes were prepared from guinea pig striatum by the method described for sigma receptor binding. The membranes were then resuspended in 50 mM Tris HCl (9 mL per brain).
Nonspecific binding was measured in the presence of 100 nM (+)-butaclamol After 15 min of incubation at 37° C. samples were filtered rapidly through Whatman GF/C glass filters under negative pressure, and washed three times with ice-cold binding buffer (5 mL).

[3] = 1 nM (+)-[3H]SKF 10,047, guinea pig brain membranes, pH 7.4, 45 min room temperature, read-out: Receptor Binding Affinity Sigma (Ki class)
[4] = 0.15 nM [3H]spiperone, guinea pig striatum, pH 7.7, 15 min 37° C., read-out: Receptor Binding Affinity Dopamine (D-2) (Ki class)

T2 sequence (H0VE83 1-446): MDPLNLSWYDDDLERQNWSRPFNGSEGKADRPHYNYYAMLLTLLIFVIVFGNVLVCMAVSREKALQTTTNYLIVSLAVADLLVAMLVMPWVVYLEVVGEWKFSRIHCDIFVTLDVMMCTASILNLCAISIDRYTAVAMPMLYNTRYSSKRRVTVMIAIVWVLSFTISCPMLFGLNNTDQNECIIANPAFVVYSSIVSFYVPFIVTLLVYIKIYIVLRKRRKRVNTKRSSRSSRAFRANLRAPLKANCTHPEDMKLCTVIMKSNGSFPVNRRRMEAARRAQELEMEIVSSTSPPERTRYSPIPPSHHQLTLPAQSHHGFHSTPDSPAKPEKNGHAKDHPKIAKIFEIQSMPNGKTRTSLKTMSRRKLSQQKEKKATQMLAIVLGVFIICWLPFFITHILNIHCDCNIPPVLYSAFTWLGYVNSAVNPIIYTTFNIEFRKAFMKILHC
T1 sequence (Q60492 whole entry): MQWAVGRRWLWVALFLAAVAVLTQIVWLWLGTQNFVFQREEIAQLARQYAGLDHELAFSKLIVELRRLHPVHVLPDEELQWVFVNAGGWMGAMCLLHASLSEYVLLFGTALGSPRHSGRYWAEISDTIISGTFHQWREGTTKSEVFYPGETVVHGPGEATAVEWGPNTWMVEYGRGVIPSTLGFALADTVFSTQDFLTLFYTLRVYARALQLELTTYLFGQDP

Row | Structure (SMILES) | pKi [1, 3] | pKi [2, 4] | pKi [1] | pKi [2]
1 | O=C1C2CCCCC2C(O)N1CC1CCN(CCc2ccccc2)CC1 (stereo not drawn) [Example 5, cis-Octahydro-3-hydroxy-2-[[1-(2-phenylethyl)-4-piperidinyl]methyl]-1H-isoindol-1-one] | 6.30 to 7.00 | < 6.30 |  | 
2 | O=C1[C@H]2CCCC[C@H]2C(=O)N1CC1=CCN(CCc2ccccc2)CC1 [Example 119] | 7.52 to 9.00 | < 6.30 |  | 
3 | O=C1[C@H]2CC=CC[C@H]2C(=O)N1CC1=CCN(CCc2ccccc2)CC1 [Example 117] | 7.52 to 9.00 | < 6.30 |  | 
4 | O=C1C2C3CCC(O3)C2C(=O)N1CC1CCN(CCc2ccccc2)CC1 (centres unmarked) [Example 58] | 7.52 to 9.00 | < 6.30 |  | 
5 | O=C1C2C3C=CC(CCC3)C2C(=O)N1CC1(O)CCN(CCc2ccccc2)CC1 (centres unmarked) [Example 75] | 7.52 to 9.00 | < 6.30 |  | 
6 | O=C1[C@H]2CCCC[C@H]2C(=O)N1CC1CCN(CCc2ccc(C(F)(F)F)cc2)CC1 [Example 31] | 6.30 to 7.00 | < 6.30 |  | 
7 | O=C1[C@H]2CCCC[C@H]2C(=O)N1CC1CCN(CC2CC2)CC1 [Example 21] | 6.30 to 7.00 | < 6.30 |  | 
8 | O=C1C2C3C=CC(C4C=CC43)C2C(=O)N1CC1(O)CCN(CCc2ccccc2)CC1 (centres unmarked) [Example 76] | 7.00 to 7.51 | < 6.30 |  | 
9 | O=C1c2ccccc2C(=O)N1CC1CCN(CC2CC2)CC1 [Example 37] | 6.30 to 7.00 | < 6.30 |  | 
10 | CC1C2=C(CCCC2)C(=O)N1CC1CCN(CCc2ccccc2)CC1 (centres unmarked) [Example 70, 2,3,4,5,6,7, -hexahydro-2-[[1-(2-phenylethyl)-4-piperidinyl]methyl]-3-methyl-1H-isoindol-1-one] | 6.30 to 7.00 | 6.30 to 7.00 |  | 
11 | O=C1C2C3C=CC(C4CCC34)C2C(=O)N1CC1CCN(CCc2c[nH]c3ccccc23)CC1 (centres unmarked) [Example 10] | 7.52 to 9.00 | 7.00 to 7.51 |  | 
12 | O=C1C2C3C=CC(CCC3)C2C(=O)N1CC1CCN(CCc2ccccc2)CC1 (centres unmarked) [Example 62] | 7.52 to 9.00 | < 6.30 |  | 
13 | O=C1[C@H]2CCCC[C@H]2C(=O)N1CC1CCN(CCc2ccc(Br)cc2)CC1 [Example 30] | 7.52 to 9.00 | 6.30 to 7.00 |  | 
14 | O=C1C2C3C=CC(C3)C2C(=O)N1CC1CCN(CCc2ccccc2)CC1 (centres unmarked) [Example 55] | 7.00 to 7.51 | < 6.30 |  | 
15 | CN(C)c1ccc(CCN2CCC(CN3C(=O)[C@H]4CCCC[C@H]4C3=O)CC2)cc1 [Example 28] | 7.52 to 9.00 | < 6.30 |  | 
16 | O=C1c2ccccc2C(=O)N1CC1CCCN(CCc2ccccc2)C1 (centres unmarked) [Example 48] | 7.52 to 9.00 | < 6.30 |  | 
17 | O=C1[C@H]2CCCC[C@H]2C(=O)N1CC1(c2cccc3ccccc23)CCN(CCc2ccccc2)CC1 [Example 127] |  | < 6.30 | 7.00 to 7.51 | 
18 | CC12CCCCC1(C)C(=O)N(CC1CCN(CCc3ccccc3)CC1)C2=O (centres unmarked) [Example 65] | 7.00 to 7.51 | 6.30 to 7.00 |  | 
19 | O=C1[C@H]2CCCC[C@H]2C(=O)N1CCCC1=CCN(CCc2ccccc2)CC1 [Example 121] | 7.52 to 9.00 | < 6.30 |  | 
20 | O=C1[C@H]2CCCC[C@H]2C(=O)N1CC1CCN(CCc2ccc(O)cc2)CC1 [Example 19] | 6.30 to 7.00 | 6.30 to 7.00 |  | 
21 | O=C1[C@H]2CCCC[C@H]2C(=O)N1CC1CCN(Cc2cccc(C(F)(F)F)c2)CC1 [Example 18] | 7.00 to 7.51 | < 6.30 |  | 

Row | Structure (SMILES) | pKi [1, 3] | pKi [2, 4] | pKi [1] | pKi [2]
22 | O=C1c2ccccc2C(=O)N1CCCC1CCN(CCc2ccccc2)CC1 [Example 44] | 7.52 to 9.00 | < 6.30 |  | 
23 | O=C1[C@H]2CC=CC[C@H]2C(=O)N1CCCC1=CCN(CCc2ccccc2)CC1 [Example 118] | 7.52 to 9.00 | < 6.30 |  | 
24 | O=C1[C@H]2CCCC[C@H]2C(=O)N1C1CCN(Cc2ccccc2)CC1 [Example 12] | 7.52 to 9.00 | < 6.30 |  | 
25 | O=C1c2ccccc2C(O)N1CC1CCN(CCc2ccccc2)CC1 (centres unmarked) [Example 7, 2,3-Dihydro-3-hydroxy-2-[[1-(2-phenylethyl]-4-piperidinyl]methyl]-1H-isoindol-1-one] | 6.30 to 7.00 | < 6.30 |  | 
26 | O=C1c2ccccc2C(=O)N1CC1(c2cccc(Cl)c2)CCN(CCc2ccccc2)CC1 [Example 130] |  | < 6.30 | 7.52 to 9.00 | 
27 | O=C1[C@H]2CCCC[C@H]2C(=O)N1CC1CCN(Cc2ccc(F)cc2)CC1 [Example 20] | 7.52 to 9.00 | < 6.30 |  | 
28 | O=C1[C@H]2CCCC[C@H]2C(=O)N1CC1(c2csc3ccccc23)CCN(CCc2ccccc2)CC1 [Example 129] |  | 6.30 to 7.00 | 7.52 to 9.00 | 
29 | O=C1[C@H]2CCCC[C@H]2C(=O)N1CCCC1CCN(CCc2ccccc2)CC1 [Example 33] | 7.52 to 9.00 | < 6.30 |  | 
30 | O=C1[C@H]2CCCC[C@H]2C(=O)N1C1CCN(CCc2ccccc2)CC1 [Example 13] | 7.00 to 7.51 | < 6.30 |  | 
31 | O=C1c2cccc3cccc(c23)C(=O)N1CCC1CCN(CCc2ccccc2)CC1 [Example 9] | 7.52 to 9.00 | 6.30 to 7.00 |  | 
32 | O=C1C2C3CC(c4ccccc43)C2C(=O)N1CC1CCN(CCc2ccccc2)CC1 (centres unmarked) [Example 57] | 7.52 to 9.00 | < 6.30 |  | 
33 | O=C1[C@@H]2CCCC[C@H]2C(=O)N1CC1CCN(CCc2ccccc2)CC1 (relative stereo) [Example 22] | 7.00 to 7.51 | < 6.30 |  | 
34 | O=C1C2C3CCCC(CC3)C2C(O)N1CC1CCN(CCc2ccccc2)CC1 (centres unmarked) [Example 73] | 7.00 to 7.51 | < 6.30 |  | 
35 | O=C1c2ccccc2C(=O)N1CC1CCN(Cc2cccc(F)c2)CC1 [Example 35] | 7.00 to 7.51 | < 6.30 |  | 
36 | O=C1C2CCCCC2C(=O)N1CC1(c2cccc(C(F)(F)F)c2)CCN(CCc2ccccc2)CC1 (centres unmarked) [Example 126] |  | < 6.30 | 7.52 to 9.00 | 
37 | O=C1c2ccccc2C(=O)N1CCC1CCN(Cc2cccc(F)c2)CC1 [Example 40] | 7.52 to 9.00 | < 6.30 |  | 
38 | O=C1[C@H]2CCCC[C@H]2C(=O)N1CC1(c2ccsc2)CCN(CCc2ccccc2)CC1 [Example 128] |  | < 6.30 | 7.52 to 9.00 | 
39 | O=C1C2C3C=CC(C4CCC34)C2C(=O)N1CC1(O)CCN(CCc2ccccc2)CC1 (centres unmarked) [Example 77] | 7.00 to 7.51 | < 6.30 |  | 
40 | O=C1c2ccccc2C(=O)N1CCC1CCN(Cc2ccc(F)cc2)CC1 [Example 41] | 7.52 to 9.00 | < 6.30 |  | 
41 | CCCC1C2c3ccccc3C=CC2C(=O)N1CCC1CCN(CCc2ccccc2)CC1 (centres unmarked) [Example 86] | 6.30 to 7.00 | 6.30 to 7.00 |  | 
42 | CC1(CN2C(=O)[C@H]3CCCC[C@H]3C2=O)CCN(CCC2CCCCC2)CC1 [Example 133] | 7.52 to 9.00 | < 6.30 |  | 

Row | Structure (SMILES) | pKi [1, 3] | pKi [2, 4] | pKi [1] | pKi [2]
43 | O=C1[C@H]2CC=CC[C@H]2C(=O)N1CC1CCN(CCc2ccccc2)CC1 [Example 1, 2-[1-(2-Phenylethyl)-4-piperidinylmethyl]-cis-3a; 4,7,7a-tetrahydro-1H-isoindole-1,3(2H)-dione] | 7.00 to 7.51 | < 6.30 |  | 
44 | O=C1[C@H]2CCCC[C@H]2C(=O)N1CCC1=CCN(CCc2ccccc2)CC1 [Example 120] | 7.52 to 9.00 | < 6.30 |  | 
45 | O=C1c2ccccc2C(=O)N1CCC1CCCCN1Cc1ccccc1 (centres unmarked) [Example 50] | 7.00 to 7.51 | < 6.30 |  | 
46 | O=C1c2ccccc2C(=O)N1CC1CCN(CCc2ccccc2)CC1 [Example 2, 2-[1-(2-Phenylethyl)-4-piperidinylmethyl]-1H-isoindole-1,3(2H)-dione] | 7.00 to 7.51 | < 6.30 |  | 
47 | O=C1C2=C(CN1CC1CCN(CCc3ccccc3)CC1)C1CCCC2CC1 (centres unmarked) [Example 71] | 7.52 to 9.00 | < 6.30 |  | 
48 | CC12CC=CCC1C(=O)N(CC1CCN(CCc3ccccc3)CC1)C2=O (centres unmarked) [Example 67] | 6.30 to 7.00 | < 6.30 |  | 
49 | O=C1[C@H]2CCCC[C@H]2C(=O)N1CC1(O)CCN(CCc2ccccc2)CC1 [Example 74] | 6.30 to 7.00 | < 6.30 |  | 
50 | O=C1C2C3C=CC(C4CCC34)C2C(=O)N1CC1CCN(CCc2ccccc2)CC1 (centres unmarked) [Example 59] | 7.00 to 7.51 | < 6.30 |  | 
51 | O=C1c2ccccc2C(=O)N1CCCC1CCCN(CCc2ccccc2)C1 (centres unmarked) [Example 49] | 7.52 to 9.00 | < 6.30 |  | 
52 | CC1(O)C2CCCCC2C(=O)N1CC1CCN(CCc2ccccc2)CC1 (stereo not drawn) [Example 8, cis-Octahydro-3-hydroxy-3-methyl-2-[[1-(2-phenylethyl)4-piperidinyl]methyl]-1H-isoindol-1-one] | 6.30 to 7.00 | < 6.30 |  | 
53 | CC1(CN2C(=O)[C@H]3CCCC[C@H]3C2=O)CCN(CCc2ccccc2)CC1 [Example 132, 2-[1-(2-Phenylethyl)-4-(4-methyl)piperidinylmethyl]-cis-3a, 4,5,6,7,7a-hexahydro-1H-isoindole-1,3(2H)-dione] | 7.52 to 9.00 | < 6.30 |  | 
54 | O=C1c2ccccc2C(=O)N1CC1CCCN(Cc2ccccc2)C1 (centres unmarked) [Example 47] | 7.52 to 9.00 | < 6.30 |  | 
55 | O=C1[C@H]2CCCC[C@H]2C(=O)N1CC1(c2ccc(Cl)cc2)CCN(CCc2ccccc2)CC1 [Example 124] |  | < 6.30 | 7.52 to 9.00 | 
56 | O=C1C2C3C=CC(C4CC34)C2C(=O)N1CC1CCN(CCc2ccccc2)CC1 (centres unmarked) [Example 69] | 7.52 to 9.00 | < 6.30 |  | 
57 | O=C1c2ccccc2C(=O)N1CCC1CCN(CC2CC2)CC1 [Example 42] | 7.52 to 9.00 | < 6.30 |  | 
58 | O=C1c2ccccc2C(=O)N1CC1CCN(Cc2ccc(F)cc2)CC1 [Example 36] | 7.52 to 9.00 | < 6.30 |  | 
59 | COc1cccc(C2(CN3C(=O)C4CCCCC4C3=O)CCN(CCc3ccccc3)CC2)c1 (centres unmarked) [Example 125] |  |  | 7.00 to 7.51 | < 6.30
60 | O=C1[C@H]2CCCC[C@H]2C(=O)N1CC1CCN(CCc2c[nH]c3ccccc23)CC1 [Example 32] | 6.30 to 7.00 |  |  | < 6.30
61 | O=C1[C@H]2CCCC[C@H]2C(=O)N1CC1CCN(CCCc2ccccc2)CC1 [Example 16] | 7.00 to 7.51 | < 6.30 |  | 
62 | O=C1[C@H]2CCCC[C@H]2C(=O)N1CCC1CCN(CCc2ccccc2)CC1 [Example 24] | 7.52 to 9.00 | < 6.30 |  | 
63 | O=C1C2C3C=CC(C4CCC34)C2C(=O)N1CC1CCN(CCc2ccccc2)CC1 (centres unmarked) [Example 113] | 7.00 to 7.51 |  |  | 
